# Laboratory results from the supplement of paper PMC10307832.
# Tests used:
# Assay in all cases: relative viability (nuclei count vs DMSO), 5 days (fraction); higher = more cells survive
# [1] = compound: COc1nc(N)nc2c1ncn2[C@@H]1O[C@H](CO)[C@@H](O)[C@@H]1O [Nelarabine] + CS(=O)(=O)N1CCN(Cc2cc3nc(-c4cccc5[nH]ncc45)nc(N4CCOCC4)c3s2)CC1 [Pictilisib] (partner 1 µM)
# In short: (§1)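 For relative viability, nuclei counts in treated wells were divided by those in vehicle wells. Lung cancer cell lines had been pin-tool dosed in 1536-well plates the day after seeding and cultured for 5 days, then fixed and stained in one step (final 0.05% Triton X-100, 1% formaldehyde, 1 ug/ml Hoechst) and imaged at 4×. Doses were one drug alone or a fixed anchor-drug dose plus five library-drug doses (not always all listed) in √10 steps, and values are duplicate-plate medians.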
# [2] = compound: C=CCn1c(=O)c2cnc(Nc3ccc(N4CCN(C)CC4)cc3)nc2n1-c1cccc(C(C)(C)O)n1 [Adavosertib] + CC(=O)c1c(C)c2cnc(Nc3ccc(N4CCNCC4)cn3)nc2n(C2CCCC2)c1=O [Palbociclib] (partner 0.5 µM)
# In short: as §1
# [3] = compound: C=CCn1c(=O)c2cnc(Nc3ccc(N4CCN(C)CC4)cc3)nc2n1-c1cccc(C(C)(C)O)n1 [Adavosertib] + Cc1nc(NC(=O)N2CCC[C@H]2C(N)=O)sc1-c1ccnc(C(C)(C)C(F)(F)F)c1 [Alpelisib] (partner 2 µM)
# In short: as §1
# [4] = compound: COc1nc(N)nc2c1ncn2[C@@H]1O[C@H](CO)[C@@H](O)[C@@H]1O [Nelarabine] + Nc1nc2[nH]cc(CCc3ccc(C(=O)N[C@@H](CCC(=O)O)C(=O)O)cc3)c2c(=O)[nH]1 [Pemetrexed] (partner 0.2 µM)
# In short: as §1
Cell Line,relative viability ([1]; first compound 0.01 µM),relative viability ([1]; first compound 0.03162 µM),relative viability ([1]; first compound 0.1 µM),relative viability ([1]; first compound 0.3162 µM),relative viability ([1]; first compound 1 µM),relative viability ([2]; first compound 0.01 µM),relative viability ([2]; first compound 0.03162 µM),relative viability ([2]; first compound 0.1 µM),relative viability ([2]; first compound 0.3162 µM),relative viability ([3]; first compound 0.01 µM),relative viability ([3]; first compound 0.03162 µM),relative viability ([3]; first compound 0.1 µM),relative viability ([3]; first compound 0.3162 µM),relative viability ([4]; first compound 0.01 µM),relative viability ([4]; first compound 0.03162 µM),relative viability ([4]; first compound 0.1 µM),relative viability ([4]; first compound 0.3162 µM),relative viability ([4]; first compound 1 µM)
HCC-366,0.165,0.122,0.152,0.196,0.132,0.396,0.388,0.471,0.329,0.47,0.435,0.501,0.509,0.204,0.146,0.202,0.225,0.22
COR-L 105,0.341,0.4,0.352,0.424,0.39,0.374,0.419,0.415,0.444,1.05,1.12,0.972,0.798,1.11,1.26,1.16,1.15,1.08
HCC-44,0.708,0.829,0.569,0.597,0.529,0.989,1.01,1.03,0.966,0.881,0.864,0.813,0.958,0.642,0.662,0.646,0.69,0.633
LXF-289,0.739,0.841,0.845,0.801,0.751,0.576,0.619,0.656,0.735,1.08,1.01,1.09,1.07,1,0.833,0.866,0.973,0.906
NCI-H2085,0.462,0.372,0.536,0.46,0.455,0.479,0.458,0.519,0.577,1.02,0.993,0.969,0.975,0.906,0.865,0.93,0.871,0.87
A-427,0.928,0.749,0.745,0.716,0.714,0.517,0.567,0.538,0.52,1.08,1.11,1.1,1.04,1.04,1.05,1.11,0.984,0.838
LC-2-ad,0.624,0.467,0.428,0.482,0.468,0.535,0.467,0.55,0.519,0.768,0.84,0.791,0.804,0.304,0.249,0.267,0.286,0.275
LU99A,0.302,0.269,0.327,0.321,0.299,0.404,0.373,0.393,0.409,0.48,0.511,0.476,0.319,0.197,0.154,0.173,0.192,0.223
201T,0.792,0.556,0.718,0.714,0.705,0.336,0.356,0.364,0.367,0.986,1.03,0.94,0.962,0.378,0.279,0.349,0.417,0.444
NCI-H650,1.05,0.789,0.762,0.917,1.04,0.344,0.372,0.336,0.371,1.15,1.1,1.17,0.935,0.986,0.814,0.913,0.971,1.02
NCI-H2023,0.309,0.316,0.176,0.216,0.252,0.412,0.377,0.331,0.202,0.512,0.602,0.548,0.39,0.353,0.365,0.268,0.244,0.228
LK-2,0.68,,0.503,0.436,0.651,0.7,0.937,0.879,0.761,1.03,1.23,1.14,1.1,0.191,,0.26,0.273,0.294
BEN,0.67,0.596,0.605,0.607,0.641,0.452,0.434,0.473,0.501,1.24,1.09,1.04,1.18,0.788,0.822,0.765,0.837,0.752
EPLC-272H,0.337,0.269,0.315,0.302,0.298,0.331,0.32,0.35,0.317,0.918,0.893,0.868,0.723,0.3,0.288,0.308,0.289,0.378
NCI-H1975,0.325,0.295,0.369,0.335,0.331,0.551,0.559,0.488,0.608,0.736,0.63,0.546,0.339,0.376,0.278,0.312,0.305,0.303
HCC-827,0.956,0.863,0.931,0.814,0.76,0.467,0.452,0.533,0.532,1,1.05,0.995,0.838,0.231,0.235,0.27,0.287,0.231
LCLC-97TM1,0.196,0.202,0.152,0.248,0.22,0.25,0.213,0.237,0.294,,0.219,0.23,0.122,,,0.153,0.2,0.169
NCI-H2126,0.517,0.48,0.453,0.483,0.5,0.352,0.34,0.352,0.35,0.75,0.767,0.675,0.752,0.879,0.757,0.692,0.765,0.807
